# Reference: article PMC7168207, “Dibasic Derivatives of Phenylcarbamic Acid as Prospective Antibacterial Agents Interacting with Cytoplasmic Membrane” (Antibiotics, 2020)
# Several values for one entry are separate records, joined by “and”; a condition that tells them apart may be missing. Equal values may be shown once. Marks after values point to notes of the source that are not given here.
# How the values were obtained:
# [1] = system: VRE 368; experiment: time-kill study; assay type: cell-based, Enterococcus faecalis; conditions: VRE2
# Text: (§1) Time-kill studies are used to evaluate the dynamics of antibacterial activity. As mentioned above, a pre-test to determine minimum bactericidal concentration (MBC) by sub-cultivation of aliquots on agar was made (see Section 3.4). […] Time-kill studies were made with methicillin-susceptible S. aureus ATCC 29213 and methicillin-resistant MRSA 63718, vancomycin-susceptible E. faecalis ATCC 29212, and all three VRE isolates. Vancomycin was used as a control (Table 6).
# (§2) The method of time-kill curves was used to study the bactericidal effect of selected compounds. […] The experiment was performed with S. aureus ATCC 29213, MRSA 63718, E. faecalis ATCC 29212, and all VRE isolates. […] The tubes were inoculated by bacterial inoculum in the exponential phase of growth to get a final concentration of 7.5 × 10^6 CFU/mL. The tubes were incubated statically at 37 °C. Immediately after inoculation and after 4, 6, 8, and 24 h, 100 µL of the sample was serially diluted (1:10) in PBS. Then, 2 × 20 µL from each dilution were put onto a Mueller–Hinton agar plate and cultivated at 37 °C for 24 h. After incubation, CFUs of dilutions containing 5–50 colonies were counted. Results were expressed as a decrease of log10(CFU) in each time compared to the starting inoculum. Bactericidal effect is defined as a −3log decrease of CFU/mL compared to the growth control in time 0. The test was made in duplicate on two separate occasions, and the results were averaged. The growth curves with error bars are shown in Figures S1 and S2 in Supplementary Materials.
# [2] = system: E. faecalis ATCC 29212; experiment: time-kill study; assay type: cell-based, Enterococcus faecalis; conditions: EF
# Text: as §1, §2
# [3] = system: VRE 342B; experiment: time-kill study; assay type: cell-based, Enterococcus faecalis; conditions: VRE1
# Text: as §1, §2
# [4] = system: VRE 725B; experiment: time-kill study; assay type: cell-based, Enterococcus faecalis; conditions: VRE3
# Text: as §1, §2
# [5] = system: Candida albicans CCM 8261; experiment: minimum fungistatic concentration, RPMI 1640; assay type: cell-based; conditions: CCM8261, CA = C albicans CCM 8261, 48 h
# How it was run: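 Broth microdilution in RPMI 1640 with a final inoculum of 10^3 CFU/mL, incubated 48 h at 37 °C. The endpoint was the lowest concentration giving visually complete (100%) growth inhibition.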
# [6] = system: MRSA 63718; experiment: synergy with antibiotics (FIC index, checkerboard); assay type: cell-based, Staphylococcus aureus; conditions: in the combination of that line
# Text: (§3) Representatives from various classes were chosen in order to study the potential difference in synergistic activity according to the diverse mechanisms of action and resistance of these drugs. The method of minimal fractional inhibitory concentration (FIC) index (FICI) in a microtitration plate was used. FICI ≤ 0.5 means synergy; 0.5 < FICI < 1 means additivity; 1 ≤ FICI < 4 means indifference; and FICI ≥ 4 means antagonism.
# (§4) For synergy effect study, a method of fractional inhibitory concentration was used. […] Raw H was used for the evaluation of MIC(A); column 12 was used for evaluation of MIC(B). The plate was inoculated by the bacterial suspension to reach final concentration of 5 × 10^5 CFU/mL in the wells. The fractional inhibitory concentration (FIC) index was calculated using the concentrations in the first nonturbid (clear) well found in each row and column along the turbidity/nonturbidity interface. To interpret the combined effect, the lowest FICI was used. A ΣFIC ≤ 0.5 means synergy; 0.5 < ΣFIC < 1 means additivity; 1 ≤ ΣFIC < 4 means indifference; and ΣFIC ≥ 4 means antagonism. The tests were made in duplicate, and the results were averaged.
# [7] = system: VRE 725B; experiment: synergy with antibiotics (FIC index, checkerboard); assay type: cell-based, Enterococcus faecalis; conditions: combination with VAN, data not shown
# Text: as §3
# The used VRE strains were isolated from American crows by Oravcova et al., and their genetic profiles were characterized. All the VRE strains were carrying genes vanA, tetM, and ermB. Strains VRE 368 and VRE 725B carried gene aac, which provided acquired aminoglycoside resistance.
# as §4
# [8] = system: MRSA 63718; experiment: time-kill study; assay type: cell-based, Staphylococcus aureus; conditions: MRSA1
# Text: as §1, §2
compound,measurement,setting,value
"CCCCCCOc1cccc(NC(=O)OC(CN(CCC)CCC)CN2CCCC2)c1.Cl.Cl (stereo not drawn) [1g, 1-[3-(dipropylammonio)-2-({[3-(hexyloxy)phenyl]carbamoyl}oxy)propyl]pyrrolidinium dichloride]",Log10 Difference in CFU/mL from Inoculum,"[1]; 1 × MIC, 4 h",−2.00 log10 CFU/mL
same,Log10 Difference in CFU/mL from Inoculum,"[1]; 1 × MIC, 6 h",0.29 log10 CFU/mL
same,Log10 Difference in CFU/mL from Inoculum,"[1]; 1 × MIC, 8 h",0.25 log10 CFU/mL
same,Log10 Difference in CFU/mL from Inoculum,"[1]; 1 × MIC, 24 h",−0.16 log10 CFU/mL
same,Log10 Difference in CFU/mL from Inoculum,"[1]; 2 × MIC, 4 h",−2.34 log10 CFU/mL
same,Log10 Difference in CFU/mL from Inoculum,"[1]; 2 × MIC, 6 h",−1.97 log10 CFU/mL
same,Log10 Difference in CFU/mL from Inoculum,"[1]; 2 × MIC, 8 h",−1.01 log10 CFU/mL
same,Log10 Difference in CFU/mL from Inoculum,"[1]; 2 × MIC, 24 h",0.32 log10 CFU/mL
same,Log10 Difference in CFU/mL from Inoculum,"[1]; 4 × MIC, 4 h",−2.72 * log10 CFU/mL
same,Log10 Difference in CFU/mL from Inoculum,"[1]; 4 × MIC, 6 h",−2.71 * log10 CFU/mL
same,Log10 Difference in CFU/mL from Inoculum,"[1]; 4 × MIC, 8 h",−2.45 log10 CFU/mL
same,Log10 Difference in CFU/mL from Inoculum,"[1]; 4 × MIC, 24 h",0.97 log10 CFU/mL
same,Log10 Difference in CFU/mL from Inoculum,"[2]; 1 × MIC, 4 h",−1.63 log10 CFU/mL
same,Log10 Difference in CFU/mL from Inoculum,"[2]; 1 × MIC, 6 h",−1.01 log10 CFU/mL
same,Log10 Difference in CFU/mL from Inoculum,"[2]; 1 × MIC, 8 h",−0.61 log10 CFU/mL
same,Log10 Difference in CFU/mL from Inoculum,"[2]; 1 × MIC, 24 h",0.27 log10 CFU/mL
same,Log10 Difference in CFU/mL from Inoculum,"[2]; 2 × MIC, 4 h",−3.37 * log10 CFU/mL
same,Log10 Difference in CFU/mL from Inoculum,"[2]; 2 × MIC, 6 h",−3.43 * log10 CFU/mL
same,Log10 Difference in CFU/mL from Inoculum,"[2]; 2 × MIC, 8 h",−2.68 log10 CFU/mL
same,Log10 Difference in CFU/mL from Inoculum,"[2]; 2 × MIC, 24 h",1.04 log10 CFU/mL
same,Log10 Difference in CFU/mL from Inoculum,"[2]; 4 × MIC, 4 h",−5.62 * log10 CFU/mL
same,Log10 Difference in CFU/mL from Inoculum,"[2]; 4 × MIC, 6 h",−5.14 * log10 CFU/mL
same,Log10 Difference in CFU/mL from Inoculum,"[2]; 4 × MIC, 8 h",−5.92 * log10 CFU/mL
same,Log10 Difference in CFU/mL from Inoculum,"[2]; 4 × MIC, 24 h",−0.31 log10 CFU/mL
same,Log10 Difference in CFU/mL from Inoculum,"[3]; 1 × MIC, 4 h",−0.14 log10 CFU/mL
same,Log10 Difference in CFU/mL from Inoculum,"[3]; 1 × MIC, 6 h",0.97 log10 CFU/mL
same,Log10 Difference in CFU/mL from Inoculum,"[3]; 1 × MIC, 8 h",1.01 log10 CFU/mL
same,Log10 Difference in CFU/mL from Inoculum,"[3]; 1 × MIC, 24 h",1.11 log10 CFU/mL
same,Log10 Difference in CFU/mL from Inoculum,"[3]; 2 × MIC, 4 h",−0.36 log10 CFU/mL
same,Log10 Difference in CFU/mL from Inoculum,"[3]; 2 × MIC, 6 h",−1.89 log10 CFU/mL
same,Log10 Difference in CFU/mL from Inoculum,"[3]; 2 × MIC, 8 h",−0.64 log10 CFU/mL
same,Log10 Difference in CFU/mL from Inoculum,"[3]; 2 × MIC, 24 h",1.51 log10 CFU/mL
same,Log10 Difference in CFU/mL from Inoculum,"[3]; 4 × MIC, 4 h",−0.92 log10 CFU/mL
same,Log10 Difference in CFU/mL from Inoculum,"[3]; 4 × MIC, 6 h",−1.00 log10 CFU/mL
same,Log10 Difference in CFU/mL from Inoculum,"[3]; 4 × MIC, 8 h",−1.09 log10 CFU/mL
same,Log10 Difference in CFU/mL from Inoculum,"[3]; 4 × MIC, 24 h",0.77 log10 CFU/mL
same,Log10 Difference in CFU/mL from Inoculum,"[4]; 1 × MIC, 4 h",−0.09 log10 CFU/mL
same,Log10 Difference in CFU/mL from Inoculum,"[4]; 1 × MIC, 6 h",−0.29 log10 CFU/mL
same,Log10 Difference in CFU/mL from Inoculum,"[4]; 1 × MIC, 8 h",0.19 log10 CFU/mL
same,Log10 Difference in CFU/mL from Inoculum,"[4]; 1 × MIC, 24 h",2.41 log10 CFU/mL
same,Log10 Difference in CFU/mL from Inoculum,"[4]; 2 × MIC, 4 h",−0.75 log10 CFU/mL
same,Log10 Difference in CFU/mL from Inoculum,"[4]; 2 × MIC, 6 h",−0.74 log10 CFU/mL
same,Log10 Difference in CFU/mL from Inoculum,"[4]; 2 × MIC, 8 h",0.56 log10 CFU/mL
same,Log10 Difference in CFU/mL from Inoculum,"[4]; 2 × MIC, 24 h",0.43 log10 CFU/mL
same,Log10 Difference in CFU/mL from Inoculum,"[4]; 4 × MIC, 4 h",−1.85 log10 CFU/mL
same,Log10 Difference in CFU/mL from Inoculum,"[4]; 4 × MIC, 6 h",−1.85 log10 CFU/mL
same,Log10 Difference in CFU/mL from Inoculum,"[4]; 4 × MIC, 8 h",−2.15 log10 CFU/mL
same,Log10 Difference in CFU/mL from Inoculum,"[4]; 4 × MIC, 24 h",−2.27 log10 CFU/mL
same,MIC,[5],16 µg/mL and 30.8 µM
same,concentrations of the tested compound/clinically used antibiotic providing additivity or synergy,[6],2 µg/mL
same,effect of the combination with VAN,[7],indifferent effect
same,Log10 Difference in CFU/mL from Inoculum,"[8]; 1 × MIC, 4 h",0.00 log10 CFU/mL
same,Log10 Difference in CFU/mL from Inoculum,"[8]; 1 × MIC, 6 h",0.66 log10 CFU/mL
same,Log10 Difference in CFU/mL from Inoculum,"[8]; 1 × MIC, 8 h",1.00 log10 CFU/mL
same,Log10 Difference in CFU/mL from Inoculum,"[8]; 1 × MIC, 24 h",1.99 log10 CFU/mL
same,Log10 Difference in CFU/mL from Inoculum,"[8]; 2 × MIC, 4 h",−1.33 log10 CFU/mL
same,Log10 Difference in CFU/mL from Inoculum,"[8]; 2 × MIC, 6 h",−0.93 log10 CFU/mL
same,Log10 Difference in CFU/mL from Inoculum,"[8]; 2 × MIC, 8 h",−0.26 log10 CFU/mL
same,Log10 Difference in CFU/mL from Inoculum,"[8]; 2 × MIC, 24 h",1.29 log10 CFU/mL
same,Log10 Difference in CFU/mL from Inoculum,"[8]; 4 × MIC, 4 h",−2.57 * log10 CFU/mL
same,Log10 Difference in CFU/mL from Inoculum,"[8]; 4 × MIC, 6 h",−1.99 * log10 CFU/mL
same,Log10 Difference in CFU/mL from Inoculum,"[8]; 4 × MIC, 8 h",−1.26 * log10 CFU/mL
same,Log10 Difference in CFU/mL from Inoculum,"[8]; 4 × MIC, 24 h",1.21 log10 CFU/mL
